No end group written: not given here.
Key:
[1] = Infarct size by echocardiography; format: in vivo, mouse; conditions: two weeks after surgery
From the text: To assess for the reproducibility of LAD occlusion, we measured the infarct size by echocardiography analysis (% of the MI length long axis). Two weeks after surgery, the infarct area represented 37 ± 2.5% of the LV in saline injected mice (n = 10) and 31.5 ± 4% in BNP-treated mice (n = 7).

cGMP = conditions: BNP-treated infarcted mice, cited from earlier work
Procedure: In previous work, we followed the BNP kinetic by measuring the cGMP level in the hearts and plasma of BNP-treated infarcted mice. 30 min after BNP injections, the cGMP level is increased in the hearts of treated mice and returns to normal 1 h after injection. In the circulation of treated mice, cGMP level is increased from 1 h to 24 h after ...

[2] = cited from earlier work
From the text: In previous work, we highlighted the cardioprotective effect of BNP intraperitoneal (ip) injections in infarcted mice. Contractility increased twofold and heart remodeling (the percentage of changes of the left ventricle volume) decreased (−79%, p = 0.04) 4 weeks after MI in BNP-treated mice when compared to saline-injected mice. At the cellular level, BNP injections decreased the infarct size by 20% and reduced fibrosis. At least a part of the BNP positive effect in infarcted mice is due to increased cardiac angiogenesis and vasculogenesis. Indeed, BNP stimula ... || The concentrations of BNP used in this study were already shown to stimulate the mobilization, proliferation and differentiation of the endothelial precursor cells. In our first work, we verified that these concentrations have no impact on blood pressure, heart rate and cardiac output. In contrast, these BNP concentrations decrease the heart remodeling, the left ventricular volume and left ventricular end diastolic diameter and increase by 2-fold the contractility, 4 weeks after MI [11]. Furthermore, at the cellular level, these BNP concentrations increase the number of ca ...

cardiomyocytes (CMs) [3] = conditions: adult CMs from unmanipulated BNP-treated hearts vs saline, p = 0.008; cited from earlier work
From the text: The percentages of mononucleated CMs increased in all the BNP-treated hearts (Figure 2B,E,G).

ERK = test: Western blot pERK/ERK in CMs isolated from BNP-treated hearts; format: in vivo, mouse; conditions: CMs isolated from BNP-treated adult unmanipulated hearts (injection 2–3 h before isolation), vs saline
Procedure: (§1) BNP was injected into infarcted adults, and unmanipulated neonatal and adult mice. Directly after surgery, NaCl (saline) or BNP (1.3 µg/20 g in 20 µL) was injected into the left ventricle cavity. At 24 h after MI, mice were intraperitoneal (ip) injected with BNP (2 µg/20 g mice) or saline every 2 days. C57BL/6 mice were sacrificed 1- and 14 days post-MI and Myh6 MerCreMer mice were sacrificed 14 days post-MI (Figure 1A). Neonatal C57BL/6 mice (3 days after birth) were injected ip with NaCl or BNP every two days (1 µg/2 g; Bachem; synthetic mouse BNP (1–45) peptide (catalog number H-7558)). Mice were sacrificed 11 days after birth (Figure 1B). Eight week old C57 BL/6 mice or Myh6 MerCreMer unmanipulated mice were injected ip with BNP (2 µg/20 g mice) or NaCl every two days (Figure 1C). Two weeks after the first injection, mice were sacrificed. To assess for the implication of the ERK signaling pathway in the BNP effect on CMs, PD0325901 (60 µg/20 g mice in 80 µL) was administered by gavage in adult unmanipulated mice 1 h before BNP injection (2 µg/20 g mice).
CM isolations were performed thanks to the Langendorff-Free method. […]
Total proteins were extracted from CMs isolated from adult infarcted and unmanipulated neonatal and adult hearts. […] The signal was detected and quantified with the Odyssey infrared imaging system (LI-COR. Biosciences, Bad Homburg, Germany). […]

cardiomyocytes (CMs) [4] = test: qRT-PCR on CMs isolated from treated hearts; format: in vivo, mouse
Procedure: as §1
(§2) CM isolations were performed thanks to the Langendorff-Free method. […] Thereafter, the heart was removed from the chest and the left ventricle was perfused with enzymatic solution containing collagenase II (120 U/mL), collagenase IV (120 U/mL) (Worthington, Biochemical Corporation, USA) and protease XIV (0.05 mg/mL or 0.175 U/mL) (Sigma-Aldrich, Merck, Darmstadt, Germany). In each experiment, a full digestion of the heart was obtained. After digestion, cardiac cells were dissociated by gentle pipetting, filtered and collected after 25 min sedimentation. For infarcted hearts, the tissue was separated into the three zones (ZI, BZ and RZ). The three different areas were weighted before gentle pipetting.
(§3) qRT-PCR were performed using the SYBR Premix Ex Taq polymerase (Takara Bio Inc., Shiga, Japan) with the ViiA^TM7 Instrument (Applied Biosystems, Waltham, MA, USA). Total RNA was isolated from heart tissue, CM cell cultures and isolated CMs using TRI-Reagent (Zymo Research, Orange County, CA, USA). cDNA was synthesized from RNA using PrimeScript RT reagent kit (Takara Bio Inc.). Polymerase chain reactions (PCR) were performed using the SYBR Premix Ex Taq polymerase (Takara Bio Inc.) with the ViiA^TM7 Instrument (Applied Biosystems). Results were obtained after 40 cycles of a thermal step protocol consisting of an initial denaturation of 95 °C (1 s), followed by 60 °C (20 s) of elongation (α-skeletal actin has an elongation time of 30 s at 60 °C). The sequences of primers were reported in Supplementary File S2. All results were normalized with the 18S housekeeping gene (Δ CT values). Means of ΔΔ CT (Δ CTBNP–Δ CTsaline) values (versus untreated cells or NaCl treated mice) were calculated and results were represented as 2^−ΔΔCT. Statistics were performed on ΔΔ CT individual values. SEM fold increase was calculated using 2^−ΔΔ CT high values − 2^−means of ΔΔCT [13].

adult CMs = test: Adult CM culture 7 days with BNP; format: cell-based, mouse; conditions: 10 nM BNP, 7 days of culture
Procedure: as §2, §3

[5] = CMs from border area of infarcted hearts, BNP vs saline
[6] = CMs from unmanipulated adult hearts, BNP vs saline

Q: For “Brain Natriuretic Peptide (SQGSTLRVQQRPQNSKVTHISSCFGHKIDRIGSVSRLGCNALKLL; not fully specified; ends and bridges not checked; UniProt P40753 77-121, looked up) [BNP, synthetic mouse BNP (1–45) peptide (Bachem, catalog number H-7558)]”, which “reduction of infarct size” value ([1]; BNP vs saline) is on record?
A: Its value is 15%.

Q: What about the “infarct area as % of the LV (% of the MI length long axis)” value ([1]; BNP-treated n = 7, saline 37 ± 2.5% (n = 10)) of the same substance?
A: The value was 31.5 ± 4%.

Q: What about the “cGMP level in the hearts” value (cGMP; 30 min after injection, returns to normal 1 h after injection) of the same substance?
A: Its value is “increased”.

Q: And the “cGMP level in the circulation” value (cGMP; from 1 h to 24 h after injections)?
A: The value was “increased”.

Q: What about the “heart remodeling (percentage of changes of the left ventricle volume) change” value ([2]; 4 weeks after MI, BNP vs saline, p = 0.04) of the same substance?
A: The value was −79%.

Q: What about the contractility increase ([2]; 4 weeks after MI, BNP vs saline) of the same substance?
A: The contractility increase was “twofold”.

Q: What about the “impact on blood pressure, heart rate and cardiac output” value ([2]; BNP concentrations used in this study) of the same substance?
A: Its value is “no impact”.

Q: And the “decrease of infarct size” value ([2]; BNP injections in infarcted mice)?
A: The value was 20%.

Q: And the “CM cross-sectional area change” value (cardiomyocytes (CMs) [3])?
A: Its value is −6%.

Q: What about the pERK/ERK ratio increase (ERK) of the same substance?
A: Its pERK/ERK ratio increase is 1.6 ×.

Q: And the “hearts with increased cyclin A2 and B2 mRNA in isolated CMs” value (cardiomyocytes (CMs) [4]; CMs from BZ of BNP-treated infarcted hearts, vs saline)?
A: The value was 4 out of 8.

Q: And the “mRNA expression of myh7, acta1, hif1α” value (cardiomyocytes (CMs) [4]; CMs from RZ of BNP-treated infarcted hearts (data not shown))?
A: The value was “No difference”.

Q: What about the “acta1 mRNA level increase” value (cardiomyocytes (CMs) [4]; [5]) of the same substance?
A: Its value is 2 ×.

Q: What about the “hif1α mRNA level increase” value (cardiomyocytes (CMs) [4]; [5]) of the same substance?
A: The value was 1.4 ×.

Q: What about the “hif1α mRNA level increase” value (cardiomyocytes (CMs) [4]; CMs from neonatal BNP-treated hearts, vs saline) of the same substance?
A: The value was 1.5 ×.

Q: And the “acta1 mRNA level increase” value (cardiomyocytes (CMs) [4]; [6])?
A: Its value is 1.4 ×.

Q: And the “hif1α mRNA level increase” value (cardiomyocytes (CMs) [4]; [6])?
A: Its value is 1.8 ×.

Q: What about the “myh7 mRNA level increase” value (cardiomyocytes (CMs) [4]; [6]) of the same substance?
A: Its value is 1.9 ×.

Q: What about the “mRNAs coding for cyclins E1, A2 or B2” value (cardiomyocytes (CMs) [4]; CMs isolated from all neonatal BNP-treated hearts, vs saline) of the same substance?
A: The value was “increased levels”.

Q: What about the “CM isolations with increased cyclin A2 or B2 mRNA” value (cardiomyocytes (CMs) [4]; unmanipulated adult BNP-treated hearts, vs saline) of the same substance?
A: Its value is 5 out of 7.

Q: And the “Aurkb+ Troponin I+ CMs in culture” value (adult CMs)?
A: Its value is “detected only in BNP-treated cell cultures”.

Q: What about the “anf mRNA increase” value (adult CMs; vs untreated) of the same substance?
A: The value was 70%.

Q: What about the “cyclin E1 mRNA increase” value (adult CMs; vs untreated) of the same substance?
A: Its value is 56%.

Q: What about the “dab2 mRNA increase” value (adult CMs; vs untreated) of the same substance?
A: The value was 52%.

Q: What about the “runx1 mRNA increase” value (adult CMs; vs untreated) of the same substance?
A: The value was 62%.
